Laboratory results as given in US7208282B2 (priority 2001, dated 2007).
Where “and” joins values, the source holds several entries; their conditions need not be identical. Equal values may be shown once.

Experiments:
non-transfected cells = test: intracellular calcium (fura-2) in non-transfected HEK293T cells; type: cell-based, human; details: data not shown
From the text: The entire coding sequence of rhesus MCH-2R was cloned into BamHI-NotI site of pEF1/[…] C plasmid vector (Invitrogen). The resultant construct was transfected into HEK293T cells using LipofectAmine PLUS (Life Technologies, Rockville, Md.) according to the manufacture's instructions. Human embryonic kidney cells constitutively expressing SV40 large T antigen (HEK-293T) were maintained in Dulbecco's modified Eagle medium (Life Technologies) supplemented with 10% fetal bovine serum, 100 units/ml penicillin-G and 100 μg/ml streptomycin at 37° C. with 5% CO2 in a humidified atmosphere. […] The cells were suspended with the buffer containing 2 μM fura-2 acetoxymethylester (Dojin, Kumamoto, Japan) into the cell density of 1.0×10^7 cells/ml and incubated at 37° C. for 60 minutes with gently shaking. The fura-2-loaded cells were washed twice with the buffer and re-suspended with the buffer to 1.0×10^6 cells/ml. 0.5 ml of the resultant suspension was stirred continuously at 37° C. in a glass cuvette during the measurement. […] Data were analyzed using the software GraphPad Prism Version 3.0 (GraphPad Software, Inc., San Diego, Calif., USA).

ferret MCH-2R [1] = test: membrane radioligand binding assay, transfected COS-7 cells, ferret MCH-2R; details: COS-7 membranes
Chain of ferret MCH-2R (as listed by the source): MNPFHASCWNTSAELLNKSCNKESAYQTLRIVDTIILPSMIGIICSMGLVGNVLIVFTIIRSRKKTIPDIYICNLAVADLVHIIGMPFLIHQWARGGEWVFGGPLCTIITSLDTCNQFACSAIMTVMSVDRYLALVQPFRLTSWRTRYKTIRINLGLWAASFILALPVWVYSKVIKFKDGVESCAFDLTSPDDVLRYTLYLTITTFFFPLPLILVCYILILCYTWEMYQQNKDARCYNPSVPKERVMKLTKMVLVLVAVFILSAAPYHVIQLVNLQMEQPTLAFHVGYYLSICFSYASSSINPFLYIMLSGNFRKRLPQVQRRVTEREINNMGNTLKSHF
Experimental: Membrane binding assays were performed on transiently-transfected COS-7 cells using human or ferret MCH-2R in the plasmid vector pCI-neo (Promega, Madison, Wis.), COS-7 cells were cultured in Dulbecco's modified Eagle medium (Gibco BRL, Rockville, Md.) with 10% heat inactivated fetal calf serum.
A suspension of 7×10^6 COS-7 cells were transfected with 20 μg of pCI-neo/MCH-2R plasmid by electroporation. (Strader, et al., 1987. Proc. Natl. Acad. Sci. USA 84, 4384–4388). Cells were harvested after 60–72 hours. Membranes were prepared from transient and stable transfectants by hypotonic lysis, frozen in liquid nitrogen, and stored at −80° C. (MacNeil, et al., 1994. Biochem. Biophys. Res. Commun. 198, 328–334.)
A binding assay was set up in 96 well plates. Total volume per binding assay point was 200 μL. […] Dose response curves were from 10 μM in 5 fold or 3-fold dilution series for 11 points. The mixture was shaken for 5 minutes on a platform shaker, and incubated at room temperature for 1 hour. Filter plates were presoaked in 1% PEI. The binding reaction was harvested onto filters using Packard Filtermate harvester (Meriden, Conn.). The filters were then washed in 50 mM Tris pH 7.4, 10 mM MgCl2, 2 mM EDTA, 0.04% Tween 20, 6–8 times per plate. […] 30 μL microscintillant was added per well and counted for 1.5–3 minutes in inverted format on Packard TopCount. […]

ferret MCH-2R [2] = test: aequorin bioluminescence functional assay, ferret MCH-2R; type: cell-based; details: aequorin HEK-293 cells, read-out: Function (EC50)
From the text: The aequorin bioluminescence assay is a reliable test for identifying G-protein-coupled receptors which couple through the G protein subunit family consisting of Gq and G11 which leads to the activation of phospholipase C, mobilization of intracellular calcium, and activation of protein kinase C. (Ungrin, et al., Anal. Biochem. 1999. 272:34–42.)
For expression studies, HEK-293 cells stably expressing the aequorin reporter protein were transiently transfected with MCH-2R human or ferret expression plasmid or stable cell lines were derived (human MCH-2R). The assay was performed using a Luminoscan RT luminometer (Labsystems Inc., Gaithersburg, Md.).
293AEQ17/Aequorin cells (Button, et al., 1993. Cell Calcium 14, 663–671), were cultured for 72 hours and the apo-aequorin in the cells was charged for 1 hour with coelenterazine (10 μM) under reducing conditions (300 μM reduced glutathione) in ECB buffer (140 mM NaCl, 20 mM KCl, 20 mM HEPES-NaOH, pH 7.4, 5 mM glucose, 1 mM MgCl2, 1 mM CaCl2, 0.1 mg/mL bovine serum albumin). […] 100 μL of cell suspension (corresponding to 5×10^4 cells) was then injected into the test plate containing ligands, and the integrated light emission was recorded over 30 seconds, in 0.5-second units. 20 μL of lysis buffer (0.1% final Triton X-100 concentration) was then injected and the integrated light emission recorded over 10 seconds, in 0.5-second units. […]

mock transfected cells = test: radioligand binding to mock transfected HEK293T cells; design: species or system human; details: for specific binding into mock transfected cells: in words
Experimental: HEK293T cells were seeded into 24-well culture plates coated with poly-D-Lys at 1×10^5 cells/well and were cultured over-night. […] Forty-eight hours after transfection, the transfected monolayer cells were rinsed with the assay buffer (Hanks' balanced salt solution containing 20 mM HEPES, 0.2% BSA and 100 μg/ml bacitracin, pH 7.4). The cells were then incubated in 250 μl/well of the same buffer with [^125I]-MCH (100 pM, NEN Life Science Products, Boston, Mass.) or [^125I]-[Phe^13, Tyr^19]-MCH (100 pM, NEN Life Science Products) for 30 minutes at 37° C. After the incubation, the cells were washed three times with the ice cold assay buffer and lysed with 500 μl/well of 2 M NaOH. The lysates were transferred into test tubes and the cell-bound radioactivity was measured by a COBLA Quantum γ-counter (Packard Instrument, Meriden, Conn.).

rhesus MCH-2R = target: T1, rhesus MCH-2R (Macaca mulatta, UniProt Q8MJ88); test: radioligand binding to adherent HEK293T cells expressing rhesus MCH-2R; design: species or system rhesus monkey
T1 construct: expressed in transfected cells; host or cells: HEK293T
T1 sequence (Q8MJ88 whole entry): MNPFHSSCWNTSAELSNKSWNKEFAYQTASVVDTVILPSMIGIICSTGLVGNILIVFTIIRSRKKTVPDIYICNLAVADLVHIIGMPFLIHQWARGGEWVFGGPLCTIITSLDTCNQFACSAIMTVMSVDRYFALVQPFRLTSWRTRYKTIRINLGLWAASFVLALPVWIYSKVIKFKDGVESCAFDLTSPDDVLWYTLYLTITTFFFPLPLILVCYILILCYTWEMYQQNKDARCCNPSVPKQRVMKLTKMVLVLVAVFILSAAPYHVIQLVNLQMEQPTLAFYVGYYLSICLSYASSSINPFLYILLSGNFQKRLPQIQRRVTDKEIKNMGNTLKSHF
Experimental: HEK293T cells were seeded into 24-well culture plates coated with poly-D-Lys at 1×10^5 cells/well and were cultured over-night. The adherent cells were transfected with pEF1/V5-HisC/rhesus MCH-2R plasmid (see Example 2). Forty-eight hours after transfection, the transfected monolayer cells were rinsed with the assay buffer (Hanks' balanced salt solution containing 20 mM HEPES, 0.2% BSA and 100 μg/ml bacitracin, pH 7.4). The cells were then incubated in 250 μl/well of the same buffer with [^125I]-MCH (100 pM, NEN Life Science Products, Boston, Mass.) or [^125I]-[Phe^13, Tyr^19]-MCH (100 pM, NEN Life Science Products) for 30 minutes at 37° C. After the incubation, the cells were washed three times with the ice cold assay buffer and lysed with 500 μl/well of 2 M NaOH. The lysates were transferred into test tubes and the cell-bound radioactivity was measured by a COBLA Quantum γ-counter (Packard Instrument, Meriden, Conn.).

[3] = 100 pM radioligand, Mock transfected cells

Melanin-concentrating hormone [MCH] was tested, and the “[Ca2+]i increase in non-transfected cells” value (non-transfected cells) was “failed to induce a detectable [Ca^2+]i increase”, the IC50 (ferret MCH-2R [1]) was 0.055 µM and the EC50 (ferret MCH-2R [2]) was 0.069 µM.
For [^125I]-MCH, the “[125I]-MCH binding, Total binding” value (mock transfected cells; [3]) was 209.9 cpm and 215.8 cpm and 239.8 cpm, the “[125I]-MCH binding, Nonspecific binding” value (mock transfected cells; 100 pM radioligand, in the presence of 1 μM cold MCH, Mock transfected cells) was 172.0 cpm and 180.9 cpm and 184.1 cpm and the “specific binding into mock transfected cells” value (mock transfected cells) was “not observed”.
For [^125I]-[Phe^13, Tyr^19]-MCH, the “[125I]-[Phe13, Tyr19]-MCH binding, Total binding” value (rhesus MCH-2R; 100 pM radioligand, 30 minutes at 37° C., rhesus MCH-2R transfected cells) was 18031.2 cpm and 18749.0 cpm and 17985.4 cpm, the “[125I]-[Phe13, Tyr19]-MCH binding, Nonspecific binding” value (rhesus MCH-2R; 100 pM radioligand, in the presence of 1 μM cold [Phe13, Tyr19]-MCH, rhesus MCH-2R transfected cells) was 567.4 cpm and 717.0 cpm and 598.0 cpm and the “binding to HEK293T cells expressing rhesus MCH-2R” value (rhesus MCH-2R; in words) was “good windows”. For the same substance, the “[125I]-[Phe13, Tyr19]-MCH binding, Total binding” value (mock transfected cells; [3]) was 708.9 cpm and 663.3 cpm and 771.5 cpm, the “[125I]-[Phe13, Tyr19]-MCH binding, Nonspecific binding” value (mock transfected cells; 100 pM radioligand, in the presence of 1 μM cold [Phe13, Tyr19]-MCH, Mock transfected cells) was 539.7 cpm and 537.7 cpm and 557.8 cpm and the “specific binding into mock transfected cells” value (mock transfected cells) was “not observed”.
